According to US20030157062A1, “Method for exterminating termites” (priority 2000, published 2003):

Test system: Coptotemes formosanus
Assay: Indoor testing of termiticidal effect of treated soil (Japan Wood Preserving Association standard number 13, 1992)
Type: in vivo
Experimental: The following tests (test numbers 1 to 16) were carried out based on testing methods and qualitative standards (I) for termiticidal effects of termiticide for soil treating (Japan Wood Preserving Association standard number 13, 1992). In the tests using entomopathogenic nematodes, operation of diffusive volatilization was not carried out.
The bottom portions of these two glass bottles are connected with a glass tube (3) of 15 mm in diameter and 100 mm in length.
In one of the glass bottles of the testing container, about 60 g of a non-treated soil (5) having an adjusted moisture content of about 25% is placed, and in the other glass bottle, about 3 g of Japanese red pine wood blocks are placed, and in the central 50 mm portion of the glass tube, a treated soil for testing (6) is placed.
In the glass bottle containing a non-treated soil, Coptotemes formosanus taken out from a nest was placed, and the upper portions of the glass bottles were covered with aluminum foil. Cumulative mortality rates after 0, 3, 5, 7, 10 and 14 days, respectively, were examined. […]

[1] = 10 ppm of insect-growth regulator singly in treated soil, 0 days elapsed
[2] = 10 ppm of insect-growth regulator singly in treated soil, 3 days elapsed
[3] = 10 ppm of insect-growth regulator singly in treated soil, 5 days elapsed
[4] = 10 ppm of insect-growth regulator singly in treated soil, 7 days elapsed
[5] = 10 ppm of insect-growth regulator singly in treated soil, 10 days elapsed
[6] = 10 ppm of insect-growth regulator singly in treated soil, 14 days elapsed
[7] = 20 ppm of insect-growth regulator singly in treated soil, 0 days elapsed
[8] = 20 ppm of insect-growth regulator singly in treated soil, 3 days elapsed
[9] = 20 ppm of insect-growth regulator singly in treated soil, 5 days elapsed
[10] = 20 ppm of insect-growth regulator singly in treated soil, 7 days elapsed
[11] = 20 ppm of insect-growth regulator singly in treated soil, 10 days elapsed
[12] = 20 ppm of insect-growth regulator singly in treated soil, 14 days elapsed
[13] = 50 ppm of insect-growth regulator singly in treated soil, 0 days elapsed
[14] = 50 ppm of insect-growth regulator singly in treated soil, 3 days elapsed
[15] = 50 ppm of insect-growth regulator singly in treated soil, 5 days elapsed
[16] = 50 ppm of insect-growth regulator singly in treated soil, 7 days elapsed
[17] = 50 ppm of insect-growth regulator singly in treated soil, 10 days elapsed
[18] = 50 ppm of insect-growth regulator singly in treated soil, 14 days elapsed

## O=C(NC(=O)c1c(F)cccc1F)Nc1ccc(Cl)cc1 [Diflubenzuron, N-[[(4-chlorophenyl)amino]carbonyl]-2,6-difluorobenzamide]
[1]
  Cumulative mortality rate (%) after a lapse of days: 0%
[2]
  Cumulative mortality rate (%) after a lapse of days: 10%
[3]
  Cumulative mortality rate (%) after a lapse of days: 15%
[4]
  Cumulative mortality rate (%) after a lapse of days: 20%
[5]
  Cumulative mortality rate (%) after a lapse of days: 40%
[6]
  Cumulative mortality rate (%) after a lapse of days: 50%
[7]
  Cumulative mortality rate (%) after a lapse of days: 0%
[8]
  Cumulative mortality rate (%) after a lapse of days: 25%
[9]
  Cumulative mortality rate (%) after a lapse of days: 35%
[10]
  Cumulative mortality rate (%) after a lapse of days: 40%
[11]
  Cumulative mortality rate (%) after a lapse of days: 50%
[12]
  Cumulative mortality rate (%) after a lapse of days: 60%
[13]
  Cumulative mortality rate (%) after a lapse of days: 0%
[14]
  Cumulative mortality rate (%) after a lapse of days: 35%
[15]
  Cumulative mortality rate (%) after a lapse of days: 45%
[16]
  Cumulative mortality rate (%) after a lapse of days: 50%
[17]
  Cumulative mortality rate (%) after a lapse of days: 55%
[18]
  Cumulative mortality rate (%) after a lapse of days: 70%

## O=C(NC(=O)c1c(F)cccc1F)Nc1cc(Cl)c(F)c(Cl)c1F [Teflubenzuron, N-[[(3,5-dichloro-2,4-difluorophenyl)amino]carbonyl]-2,6-difluorobenzamide]
[1]
  Cumulative mortality rate (%) after a lapse of days: 0%
[2]
  Cumulative mortality rate (%) after a lapse of days: 20%
[3]
  Cumulative mortality rate (%) after a lapse of days: 25%
[4]
  Cumulative mortality rate (%) after a lapse of days: 30%
[5]
  Cumulative mortality rate (%) after a lapse of days: 30%
[6]
  Cumulative mortality rate (%) after a lapse of days: 55%
[7]
  Cumulative mortality rate (%) after a lapse of days: 0%
[8]
  Cumulative mortality rate (%) after a lapse of days: 30%
[9]
  Cumulative mortality rate (%) after a lapse of days: 45%
[10]
  Cumulative mortality rate (%) after a lapse of days: 50%
[11]
  Cumulative mortality rate (%) after a lapse of days: 60%
[12]
  Cumulative mortality rate (%) after a lapse of days: 70%
[13]
  Cumulative mortality rate (%) after a lapse of days: 0%
[14]
  Cumulative mortality rate (%) after a lapse of days: 40%
[15]
  Cumulative mortality rate (%) after a lapse of days: 60%
[16]
  Cumulative mortality rate (%) after a lapse of days: 70%
[17]
  Cumulative mortality rate (%) after a lapse of days: 80%
[18]
  Cumulative mortality rate (%) after a lapse of days: 90%

## O=C(NC(=O)c1c(F)cccc1F)Nc1ccc(OC(F)(F)C(F)OC(F)(F)F)c(Cl)c1 (centres unmarked) [novaluron, N-[[[3-chloro-4-(1,1,2-trifluoro-2-trifluoromethoxyethoxy)phenyl]amino]carbonyl]-2,6-difluorobenzamide]
[1]
  Cumulative mortality rate (%) after a lapse of days: 0%
[2]
  Cumulative mortality rate (%) after a lapse of days: 20%
[3]
  Cumulative mortality rate (%) after a lapse of days: 30%
[4]
  Cumulative mortality rate (%) after a lapse of days: 35%
[5]
  Cumulative mortality rate (%) after a lapse of days: 40%
[6]
  Cumulative mortality rate (%) after a lapse of days: 80%
[7]
  Cumulative mortality rate (%) after a lapse of days: 0%
[8]
  Cumulative mortality rate (%) after a lapse of days: 30%
[9]
  Cumulative mortality rate (%) after a lapse of days: 45%
[10]
  Cumulative mortality rate (%) after a lapse of days: 100%
[13]
  Cumulative mortality rate (%) after a lapse of days: 0%
[14]
  Cumulative mortality rate (%) after a lapse of days: 40%
[15]
  Cumulative mortality rate (%) after a lapse of days: 60%
[16]
  Cumulative mortality rate (%) after a lapse of days: 100%
